Reference: patent US20250326744A1, “PIPERAZINE DERIVATIVE OR SALT THEREOF, AND PHARMACEUTICAL COMPOSITION” (priority 2022, published 2025)
Structures can show the parent of a compound that is named as a salt.

What was measured:
mexB (EC) strain = experiment: Efflux ability inhibition effect on drug efflux pump MexB (Test Examples 1 and 3): proliferation (OD595) of mexB (EC) strain with EM or LVFX at 1/4 MIC, EC75; format: cell-based, Escherichia coli; conditions: Table 51, Test Example 1, 16 to 20 hours culture, OD595; for EC75, mexB (EC) strain, EM: combined with EM at 1/4 MIC; for EC75, mexB (EC) strain, LVFX: combined with LVFX at 1/4 MIC
In short: (§1)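 E. coli ΔacrB/ΔtolC strains carrying P. aeruginosa MexAB-OprM or MexXY-OprM were grown in LB for 16 to 20 hours with EM or LVFX at ¼ MIC plus compound (0 to 800 μM). Growth was read as OD595. EC75 is the lowest compound concentration giving ≥75% growth inhibition versus antibiotic alone.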

mexY (EC) strain = experiment: Efflux ability inhibition effect on drug efflux pump MexY (Test Examples 1 and 3): proliferation (OD595) of mexY (EC) strain with EM or LVFX at 1/4 MIC, EC75; format: cell-based, Escherichia coli; conditions: Table 51, Test Example 1, 16 to 20 hours culture, OD595; for EC75, mexY (EC) strain, EM: combined with EM at 1/4 MIC; for EC75, mexY (EC) strain, LVFX: combined with LVFX at 1/4 MIC
In short: as §1

Compound	EC75, mexB (EC) strain, EM (mexB (EC) strain)	EC75, mexB (EC) strain, LVFX (mexB (EC) strain)	EC75, mexY (EC) strain, EM (mexY (EC) strain)	EC75, mexY (EC) strain, LVFX (mexY (EC) strain)
N[C@@H](C(=O)N1CCN(Cc2cscn2)CC1)C1CCN(CCc2cc(Cl)ccc2-c2ccccc2)CC1 [Example 13, Hydrobromide of (R)-2-amino-2-(1-(2-(4-chloro-[1,1′-biphenyl]-2-yl)ethyl)piperidin-4-yl)-1-(4-(thiazol-4-ylmethyl)piperazin-1-yl)ethan-1-one]	B (25 μM<EC75≤100 μM)	B (25 μM<EC75≤100 μM)	B (25 μM<EC75≤100 μM)	B (25 μM<EC75≤100 μM)
CCOc1cccc(/C=C/C#N)c1CN1CCN(C(=O)[C@H](N)C2CCN(CCc3ccccc3)CC2)CC1 [Example 34]	B (25 μM<EC75≤100 μM)	B (25 μM<EC75≤100 μM)	A (12.5 μM<EC75≤25 μM)	A (12.5 μM<EC75≤25 μM)
CCOc1cccc(F)c1CN1CCN(C(=O)[C@H](N)C2CCN(CC(F)(F)c3ccccc3)CC2)CC1 [Example 54, Hydrobromide of (R)-2-amino-2-(1-(2,2-difluoro-2-phenylethyl)piperidin-4-yl)-1-(4-(2-ethoxy-6-fluorobenzyl)piperazin-1-yl) ethan-1-one]	B (25 μM<EC75≤100 μM)	B (25 μM<EC75≤100 μM)	B (25 μM<EC75≤100 μM)	B (25 μM<EC75≤100 μM)
COc1ccccc1CN1CCN(C(=O)[C@@H](N)C2CCN(CCc3ccccc3)CC2)CC1 [Example 112, Hydrochloride of (S)-2-amino-1-(4-(2-methoxybenzyl)piperazin-1-yl)-2-(1-phenethylpiperidin-4-yl)ethan-1-one]	B (25 μM<EC75≤100 μM)	B (25 μM<EC75≤100 μM)	A (12.5 μM<EC75≤25 μM)	A (12.5 μM<EC75≤25 μM)
COCCOc1cccc(F)c1CN1CCN(C(=O)[C@H](N)C2CCN(CCc3ccccc3)CC2)CC1 [Example 116, Hydrochloride of (R)-2-amino-1-(4-(2-fluoro-6-(2-methoxyethoxy)benzyl)piperazin-1-yl)-2-(1-phenethylpiperidin-4-yl)ethan-1-one]	A (12.5 μM<EC75≤25 μM)	A (12.5 μM<EC75≤25 μM)	B (25 μM<EC75≤100 μM)	B (25 μM<EC75≤100 μM)
CN[C@@H](C(=O)N1CCN(Cc2ccccc2OC)CC1)C1CCN(CCc2ccccc2)CC1 [Example 131, hydrochloride of (R)-1-(4-(2-methoxybenzyl)piperazin-1-yl)-2-(methylamino)-2-(1-phenethylpiperidin-4-yl)ethan-1-one]	B (25 μM<EC75≤100 μM)	B (25 μM<EC75≤100 μM)	B (25 μM<EC75≤100 μM)	B (25 μM<EC75≤100 μM)
COc1ccccc1CN1CCN(C(=O)[C@H](N)C2CCN(CCc3ccsc3)CC2)CC1 [Example 133, hydrochloride of (R)-2-amino-1-(4-(2-methoxybenzyl)piperazin-1-yl)-2-(1-(2-(thiophen-3-yl)ethyl)piperidin-4-yl)ethan-1-one]		A (12.5 μM<EC75≤25 μM)	B (25 μM<EC75≤100 μM)	B (25 μM<EC75≤100 μM)
COc1ccccc1CN1CCN(C(=O)[C@H](N)C2CCN(CC(CN)c3ccccc3)CC2)CC1 (stereo partly drawn) [Example 136, hydrochloride of (2R)-2-amino-2-(1-(3-amino-2-phenylpropyl)piperidin-4-yl)-1-(4-(2-methoxybenzyl)piperazin-1-yl)ethan-1-one]	B (25 μM<EC75≤100 μM)		B (25 μM<EC75≤100 μM)	B (25 μM<EC75≤100 μM)
O=C(O)c1ccccc1CN1CCN(C(=O)CN2CCN(CCc3ccccc3)CC2)CC1 [Example 256, sodium salt of 2-((4-(2-(4-phenethylpiperazin-1-yl)acetyl)piperazin-1-yl)methyl)benzenecarboxylic acid]	B (25 μM<EC75≤100 μM)		B (25 μM<EC75≤100 μM)	
COc1ccccc1CN1CCN(C(=O)C(=NN)C2CCN(CCc3ccccc3)CC2)CC1 [Example 301, hydrochloride of 2-hydrazinyliden-1-(4-(2-methoxybenzyl)piperazin-1-yl)-2-(1-phenethylpiperidin-4-yl)ethan-1-one]	B (25 μM<EC75≤100 μM)	B (25 μM<EC75≤100 μM)	B (25 μM<EC75≤100 μM)	B (25 μM<EC75≤100 μM)
COc1ccccc1CN1CCN(C(=O)C(=NO)C2CCN(CCc3ccccc3)CC2)CC1 [Example 302, hydrochloride of 2-(hydroxyimino)-1-(4-(2-methoxybenzyl)piperazin-1-yl)-2-(1-phenethylpiperidine-4-yl)ethan-1-one]	B (25 μM<EC75≤100 μM)		B (25 μM<EC75≤100 μM)	B (25 μM<EC75≤100 μM)
COc1ccccc1CN1CCN(C(=O)CN2CCC(CN)(CCc3ccccc3)CC2)CC1 [Example 413, hydrochloride of 2-(4-(aminomethyl)-4-phenethylpiperidin-1-yl)-1-(4-(2-methoxybenzyl)piperazin-1-yl)ethan-1-one]	A (12.5 μM<EC75≤25 μM)	A (12.5 μM<EC75≤25 μM)	A (12.5 μM<EC75≤25 μM)	
COc1ccccc1CN1CCN(C(=O)CN2CCC(N)(CCc3ccccc3)CC2)CC1 [Example 414, hydrochloride of 2-(4-amino-4-phenethylpiperidin-1-yl)-1-(4-(2-methoxybenzyl)piperazin-1-yl)ethan-1-one]		A (12.5 μM<EC75≤25 μM)	B (25 μM<EC75≤100 μM)	B (25 μM<EC75≤100 μM)
COc1ccccc1CN1CCN(C(=O)CN2CCC(NC(=O)c3ccc(O)c(O)c3Cl)CC2)CC1 [Example 418, hydrochloride of 2-chloro-3,4-dihydroxy-N-(1-(2-(4-(2-methoxybenzyl)piperazin-1-yl)-2-oxoethyl)piperidin-4-yl)benzamide]	B (25 μM<EC75≤100 μM)	B (25 μM<EC75≤100 μM)		A (12.5 μM<EC75≤25 μM)
COc1ccccc1CN1CCN(C(=O)CN2CCC(NCc3ccccc3)CC2)CC1 [Example 419, hydrochloride of 2-(4-(benzylamino)piperidin-1-yl)-1-(4-(2-methoxybenzyl)piperazin-1-yl)ethan-1-one]		A (12.5 μM<EC75≤25 μM)	B (25 μM<EC75≤100 μM)	B (25 μM<EC75≤100 μM)
